Measured values: patent US20240238368A1, “PEPTIDE FOR PREVENTING AND TREATING FIBROSIS” (NIBEC CO., LTD., priority 2021, published 2024)

How the values were obtained:
[1] = tested on: bleomycin-induced lung disease; settings: bleomycin mice; for fibrous deposition in the lungs (Sirius Red and hematoxylin/phloxine staining) / area of fibrosis (Sirius Red): day 22; for fibrous deposition in the lungs (Sirius Red and hematoxylin/phloxine staining): peptides 30 mg/kg subcutaneously three times a week compared to NT and nintedanib groups, FIG. 8c; for area of fibrosis (Sirius Red): compared to NT group and nintedanib-treated group, P<0.05, FIG. 8d
Experimental: C57BL/6J mice (male, 7 weeks old) were purchased from Charles River. Mice were anesthetized by intraperitoneal administration of a mixture of Imalgene (ketamine, 100 mg/kg)/Rompun (xylazine, 20 mg/kg), and a total of 50 μl of bleomycin sulfate (1.45 mg/kg, MBcell, CA, USA) was injected intratracheally once, and saline was injected intratracheally in the normal group (day 0). On day 7, mice were divided into groups, each consisting of eight. PBS (NT), SEQ ID NO: 1 (30 mg/kg), and SEQ ID NO: 2 (30 mg/kg) were administered subcutaneously three times a week, and nintedanib (Fluorochem Ref=050741, 100 mg/kg) was administered orally daily. Each of the peptides of SEQ ID NO: 1 and SEQ ID NO: 2 was administered after dissolution in water for injection, and nintedanib was administered after mixing with water containing 0.5% hydroxyethylcellulose (Sigma; lot BCBV5033) and 0.01% Tween 80 (Sigma; lot BCBR6211V). While administering the drug for 21 days, body weight was measured every 2 days, and whether there were other clinical symptoms were checked.
After mice were sacrificed with isoflurane on day 22, lung tissue was excised therefrom and histological analysis was performed. Paraffin was introduced into the lungs, 5 μm paraffin sections were manufactured, Sirius Red staining and hematoxylin/phloxine staining were performed to evaluate the extent of pulmonary fibrosis and inflammation, and the extent of inflammation and fibrosis was observed through microscopy.
In order to quantify the fibrotic change, the area of the red (fibrotic portion) was quantified in the sample stained with Sirius Red.

pSmad2 = biological target: T1, pSmad2 (Homo sapiens, UniProt Q15796); test: Inhibition of phosphorylation of Smad2 (Western blotting); type: cell-based; settings: LX-2 cells, 10 ng/ml TGF-β1 24 hours, then peptide 10, 100 or 200 μM 24 hours; FIG. 5
T1 construct: LX-2 (Human hepatic stellate cell line, Millipore #SCC064); host or cells: LX-2 human hepatic stellate cell line
Experimental: (§1) 3×10^6 LX-2 cells were treated with 10 ng/ml TGF-β1 and cultured for 24 hours. The cells were treated with 10, 100, or 200 μM of the peptide of SEQ ID NO: 2 or 10 µM SIS3 (Smad3 inhibitor, Sigma-Aldrich, catalog #566405) in fresh medium and cultured for 24 hours.
(§2) Proteins were lysed using RIPA lysis buffer (25 mM Tris HCl pH 7.6, 150 mM NaCl, 1% NP-40, 1% sodium deoxycholate, 0.1% SDS) containing a protease inhibitor and a phosphatase inhibitor. Proteins were quantified by BCA protein assay, and the expression levels of pSmad2, Smad2, pSmad3, Smad3, TGFβ receptor 1, and GAPDH proteins were determined by Western blotting. For Western blotting, the sample was loaded in the same amount along with a size marker on an 8% SDS PAGE gel, electrophoresed for about 2 hours, and then transferred to a nitrocellulose membrane. The transferred membrane was blocked with 5% skim milk for 1 hour, and allowed to react with primary antibodies at a ratio of 1:1000 overnight. The primary antibodies used were pSmad2 (Cell Signaling, #3108), Smad2 (Cell Signaling, #5339), pSmad3 (Abcam, ab52903), Smad3 (Cell Signaling, #9513), TGFβ receptor1 (Abcam, ab31013), and GAPDH (Cell Signaling, #2118S). […]

pSmad3 = biological target: T2, pSmad3 (Homo sapiens, UniProt P84022); test: Inhibition of phosphorylation of Smad3 (Western blotting); type: cell-based; settings: LX-2 cells, 10 ng/ml TGF-β1 24 hours, then peptide 10, 100 or 200 μM 24 hours; effect from 10 μM; FIG. 5
T2 construct: LX-2 (Human hepatic stellate cell line, Millipore #SCC064); host or cells: LX-2 human hepatic stellate cell line
Experimental: as §1, §2

TGFβ receptor 1 = test: TGFβ receptor expression level (Western blotting); type: cell-based, human; settings: LX-2 cells, 10 ng/ml TGF-β1 24 hours, then peptide 10, 100 or 200 μM 24 hours; FIG. 5
Experimental: as §1, §2

[2] = tested on: COL1A2 and COL3A1 gene expression; test: Inhibition of collagen gene expression in cells (real-time PCR); type: cell-based, human; settings: IPF patient lung fibroblasts, 10 ng/ml TGF-β1 24 hours, then peptide 200 μM 24 hours; *p<0.05; FIG. 6
Experimental: The cells were seeded in a 24-well plate and cultured in starvation medium (Dulbecco's modified Eagle medium/F12 without FBS supplemented with 0.1 mM 2-phospho-L-ascorbic acid) for 24 hours. Recombinant Human TGF-β1 Protein (R&D Systems, #240-B-002) was diluted at 20 μg/ml in sterile 4 mM HCl containing 1 mg/ml bovine serum albumin. The cells were cultured for 24 hours in full growth media containing 10 ng/ml TGF-β1. The cells were treated with SEQ ID NO: 1 (200 μM), SEQ ID NO: 2 (200 μM), or nintedanib (10 μM) in fresh medium and cultured for 24 hours. The peptides were dissolved in purified water, nintedanib was dissolved in dimethyl sulfoxide, and the concentration of dimethyl sulfoxide in medium was set to 1%. The medium was removed, followed by washing with DPBS (Welgene, LB001-02) and cell lysis using 1 ml of a trizol reagent (Ambion, 15596). 250 μl of chloroform was added thereto, the tube was stirred, and centrifugation was performed at 10,000 rpm for 15 minutes. After removing the aqueous layer using a pipette, 550 μl of isopropanol (Sigma, 19516) was added and shaken gently. After centrifugation at 15,000 rpm for 25 minutes, isopropanol was removed, and 1 ml of 75% ethanol was added thereto. After removal of ethanol and drying in air, the pellets were dissolved in DEPC water (Invitrogen, AM9915G). The concentration of RNA was measured using a Nano Drop (Thermo Scientific, NanoDrop One, AZY1913798).
(§3) CDNA was synthesized from the extracted RNA using a Maxima First strand CDNA synthesis kit (Thermo Fisher, K1641) according to the manufacturer's protocol. In addition, real-time PCR was performed using QuantStudio 3 (Applied Biosystems, A28132) according to the manufacturer's protocol. PCR amplification was conducted by repeating 50 cycles at 95° C. for 30 seconds, 60° C. for 30 seconds, and 72° C. for 30 seconds.

[3] = tested on: MET markers (E-cadherin, EpCAM) and EMT markers (N-cadherin, Twist1, Snail1); test: Reprogramming effects in cells: MET and EMT marker gene expression (real-time PCR); type: cell-based, human; settings: LX-2 cells, 10 ng/ml TGF-beta1 and 100 μM peptide, 24 hours; FIG. 7
Experimental: The medium was removed, followed by washing with DPBS (Welgene, LB001-02) and cell lysis using 1 ml of a trizol reagent (Ambion, 15596). 250 μl of chloroform was added thereto, the tube was stirred, and centrifugation was performed at 10,000 rpm for 15 minutes. After removing the aqueous layer using a pipette, 550 μl of isopropanol (Sigma, 19516) was added and shaken gently. After centrifugation at 15,000 rpm for 25 minutes, isopropanol was removed, and 1 ml of 75% ethanol was added thereto. After removal of ethanol and drying in air, the pellets were dissolved in DEPC water (Invitrogen, AM9915G). The concentration of RNA was measured using a Nano Drop (Thermo Scientific, NanoDrop One, AZY1913798).
as §3, with “by repeating 40 cycles at” for “by repeating 50 cycles at”, “C. for 15 seconds, 60°” for “C. for 30 seconds, 60°”, “C. for 50 seconds, and” for “C. for 30 seconds, and”, “C. for 15 seconds.” for “C. for 30 seconds.”

[4] = tested on: methionine-choline-deficient (MCD) diet-induced hepatitis and hepatic fibrosis; test: Methionine-choline-deficient diet mouse model (hepatitis and hepatic fibrosis); type: in vivo, C57BL/6J mice; settings: MCD diet mice, peptide 20 mg/kg, 12 administrations at 3-day intervals, compared to NT group or GLP-1 agonist (liraglutide 0.2 mg/kg) group; for NAFLD activity score: FIGS. 9b, 9c; for area of fibrosis (Masson's trichrome-positive area): FIGS. 9d, 9e
Experimental: Male 6-week-old C57BL/6J mice were used, and divided into a normal diet group, a group not treated after feeding MCD diet, groups injected with the peptide of SEQ ID NO: 1 (20 mg/kg) and the peptide of SEQ ID NO: 2 (20 mg/kg), and a positive control group subcutaneously injected with liraglutide (0.2 mg/kg), which is a type of glucagon-like peptide 1 receptor agonist serving as a hepatitis therapeutic agent. After autonomous feeding of MCD diet for 10 weeks, 8 mice were assigned to each group and a therapeutic agent was administered thereto. Peptide and liraglutide were administered once a day, a total of 12 times at 3-day intervals (FIG. 9a). For all animals, body weight was measured immediately before initiation of administration and twice a week throughout the entire test. After the end of the last administration, the animals was anesthetized by intraperitoneal injection of 300 μl of Avertin, blood was collected from the abdominal vena cava by laparotomy, the liver and spleen were removed therefrom, and the weight of the removed organs was measured. Tissues were fixed in a neutral buffered formalin solution for all animals subjected to necropsy, and paraffin blocks were manufactured and sectioned through tissue processing. The tissue sections thus obtained were subjected to H&E staining. The H&E stained specimens were scored for steatosis, ballooning degeneration, and lobular inflammation (Table 3), and the extent of hepatic inflammation (NAFLD activity score) was measured. The tissue sections manufactured in the same manner as in Example 8-2 were stained with Masson's trichrome, and 100× magnification images were obtained with an optical microscope (BX51, Olympus, GER) at 5 randomly designated different sites among all Masson's trichrome-stained slides (300MI CMOS camera, […]). The blue-stained […] was measured (Image-Pro Plus, Media Cybernetics Inc., UK) and analyzed as a percentage (Masson's trichrome-positive area […]).

[5] = nintedanib 100 mg/kg orally daily
[6] = peptides 30 mg/kg subcutaneously three times a week

T2 sequence (P84022 whole entry): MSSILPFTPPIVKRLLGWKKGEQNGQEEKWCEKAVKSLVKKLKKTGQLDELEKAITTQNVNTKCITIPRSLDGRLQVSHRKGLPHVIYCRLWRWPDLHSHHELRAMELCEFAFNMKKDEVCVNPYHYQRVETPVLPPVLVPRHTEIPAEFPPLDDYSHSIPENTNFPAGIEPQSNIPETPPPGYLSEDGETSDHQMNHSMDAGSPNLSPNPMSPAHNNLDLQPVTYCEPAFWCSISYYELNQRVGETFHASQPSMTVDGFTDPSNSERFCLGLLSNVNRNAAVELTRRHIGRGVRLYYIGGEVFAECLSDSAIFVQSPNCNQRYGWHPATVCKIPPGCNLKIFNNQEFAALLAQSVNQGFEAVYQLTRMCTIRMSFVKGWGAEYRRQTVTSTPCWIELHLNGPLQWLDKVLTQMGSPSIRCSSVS
T1 sequence (Q15796 whole entry): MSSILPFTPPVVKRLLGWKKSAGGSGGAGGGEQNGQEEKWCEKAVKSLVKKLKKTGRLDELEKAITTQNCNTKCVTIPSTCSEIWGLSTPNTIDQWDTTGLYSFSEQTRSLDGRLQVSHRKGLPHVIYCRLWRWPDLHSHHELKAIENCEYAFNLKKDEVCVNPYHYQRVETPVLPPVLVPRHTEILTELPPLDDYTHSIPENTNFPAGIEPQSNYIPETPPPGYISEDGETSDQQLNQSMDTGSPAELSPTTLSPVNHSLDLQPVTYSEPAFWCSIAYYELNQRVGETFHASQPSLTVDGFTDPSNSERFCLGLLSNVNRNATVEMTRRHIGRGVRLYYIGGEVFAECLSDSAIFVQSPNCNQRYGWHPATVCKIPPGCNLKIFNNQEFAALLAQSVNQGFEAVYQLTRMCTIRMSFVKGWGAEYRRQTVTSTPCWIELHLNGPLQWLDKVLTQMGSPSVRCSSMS

| Molecule | change in body weight after treatment ([1]; day 0 to day 22, treatment from day 7, peptides 30 mg/kg subcutaneously three times a week, nintedanib 100 mg/kg orally daily, FIG. 8b) | fibrous deposition in the lungs (Sirius Red and hematoxylin/phloxine staining) [1, 5] | expression of pSmad2 (pSmad2) | expression of pSmad3 (pSmad3) | expression level of the TGFβ receptor (TGFβ receptor 1) | COL1A2 gene expression [2] | COL3A1 gene expression [2] | gene expression of E-cadherin (MET marker) [3] | gene expression of EpCAM (MET marker) [3] | gene expression of N-cadherin (EMT marker) [3] | gene expression of Snail1 (EMT marker) [3] | gene expression of Twist1 (EMT marker) [3] | area of fibrosis (Sirius Red) [1, 6] | NAFLD activity score [4] | area of fibrosis (Masson's trichrome-positive area) [4] |
| --- | --- | --- | --- | --- | --- | --- | --- | --- | --- | --- | --- | --- | --- | --- | --- |
| COC(=O)c1ccc2c(c1)NC(=O)/C2=C(\Nc1ccc(N(C)C(=O)CN2CCN(C)CC2)cc1)c1ccccc1 [nintedanib, reference compound] | increased | some therapeutic effect, but a lot of deposited fibrous tissue was still observed | – | – | – | – | – | – | – | – | – | – | – | – | – |
| GKCSTRGRKSSRRKK [SEQ ID NO: 2] | – | significantly reduce fibrosis | decreased with an increase in the concentration | completely disappeared | no change | significantly reduced | significantly reduced | increased | increased | decreased | decreased | decreased | significant reduction | significantly reduced | significantly reduce |
| YGLRSKSKKFRRPDIQYPDAT [SEQ ID NO: 1] | – | significantly reduce fibrosis | – | – | – | significantly reduced | significantly reduced | – | – | – | – | – | significant reduction | significantly reduced | significantly reduce |
